Values joined by “and” are separate entries in the source; they are usually repeats but may differ in a detail not shown here. Equal values may be shown once. Read-outs that look alike come from different tables or passages of the source.
What was measured:
[1] = test system: Caco-2 cell line; assay: MTT cytotoxicity assay, Caco-2; conditions: read-out: In vitro cytotoxic activity IC50 Caco-2
[2] = test system: HepG-2 cell line; assay: MTT cytotoxicity assay, HepG-2; assay type: cell-based, human; conditions: read-out: In vitro cytotoxic activity IC50 HepG-2
[3] = molecular target: VEGFR-2 (Homo sapiens, UniProt P35968); assay: biochemical
[4] = test system: Caco-2 cell line; assay: Flow cytometry cell cycle analysis; assay type: cell-based, human; conditions: Caco-2, treated at IC50 7.83 μM
[5] = molecular target: EGFR^Wt (Homo sapiens, UniProt P00533); assay: EGFR kinase assay kit; assay type: biochemical; conditions: for IC50: Enzyme inhibitory activity IC50 EGFR^Wt, average of three independent tests; for inhibition at 10 µM: read-out: EGFR^Wt Inhibitory%
[6] = test system: Caco-2 cells; assay: Annexin-V/propidium iodide apoptosis assay; assay type: cell-based, human

Sequence of EGFR^Wt (P00533 25-1210): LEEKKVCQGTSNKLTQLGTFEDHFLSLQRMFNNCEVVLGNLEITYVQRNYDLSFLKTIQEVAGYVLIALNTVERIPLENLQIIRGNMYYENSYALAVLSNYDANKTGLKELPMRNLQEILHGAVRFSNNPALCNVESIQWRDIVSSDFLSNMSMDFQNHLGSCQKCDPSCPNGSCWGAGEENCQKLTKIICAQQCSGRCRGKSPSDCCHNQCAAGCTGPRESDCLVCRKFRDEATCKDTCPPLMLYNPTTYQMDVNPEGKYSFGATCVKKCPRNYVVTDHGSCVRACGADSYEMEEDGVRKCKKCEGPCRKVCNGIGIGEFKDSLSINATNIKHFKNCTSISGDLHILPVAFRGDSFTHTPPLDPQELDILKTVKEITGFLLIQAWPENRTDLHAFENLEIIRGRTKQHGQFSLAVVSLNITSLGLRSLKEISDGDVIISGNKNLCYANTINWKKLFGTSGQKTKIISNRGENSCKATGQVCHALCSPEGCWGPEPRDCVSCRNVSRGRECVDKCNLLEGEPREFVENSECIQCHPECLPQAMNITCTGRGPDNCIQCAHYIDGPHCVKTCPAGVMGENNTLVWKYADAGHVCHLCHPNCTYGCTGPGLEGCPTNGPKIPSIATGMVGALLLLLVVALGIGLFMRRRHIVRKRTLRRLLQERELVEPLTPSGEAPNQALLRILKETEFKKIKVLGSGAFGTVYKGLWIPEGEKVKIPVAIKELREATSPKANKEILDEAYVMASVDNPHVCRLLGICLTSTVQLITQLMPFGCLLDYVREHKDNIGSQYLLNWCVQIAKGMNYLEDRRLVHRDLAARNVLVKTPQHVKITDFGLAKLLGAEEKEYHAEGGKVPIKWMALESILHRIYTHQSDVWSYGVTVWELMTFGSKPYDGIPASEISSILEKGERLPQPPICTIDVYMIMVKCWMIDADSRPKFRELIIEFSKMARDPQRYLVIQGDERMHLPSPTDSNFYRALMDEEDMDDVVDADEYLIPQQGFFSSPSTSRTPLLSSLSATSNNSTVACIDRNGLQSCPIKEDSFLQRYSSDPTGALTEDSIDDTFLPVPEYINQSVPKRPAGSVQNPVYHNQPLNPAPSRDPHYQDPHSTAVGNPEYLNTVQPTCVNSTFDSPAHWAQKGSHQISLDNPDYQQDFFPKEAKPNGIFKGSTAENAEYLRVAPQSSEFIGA
Sequence of VEGFR-2 (P35968 20-1356): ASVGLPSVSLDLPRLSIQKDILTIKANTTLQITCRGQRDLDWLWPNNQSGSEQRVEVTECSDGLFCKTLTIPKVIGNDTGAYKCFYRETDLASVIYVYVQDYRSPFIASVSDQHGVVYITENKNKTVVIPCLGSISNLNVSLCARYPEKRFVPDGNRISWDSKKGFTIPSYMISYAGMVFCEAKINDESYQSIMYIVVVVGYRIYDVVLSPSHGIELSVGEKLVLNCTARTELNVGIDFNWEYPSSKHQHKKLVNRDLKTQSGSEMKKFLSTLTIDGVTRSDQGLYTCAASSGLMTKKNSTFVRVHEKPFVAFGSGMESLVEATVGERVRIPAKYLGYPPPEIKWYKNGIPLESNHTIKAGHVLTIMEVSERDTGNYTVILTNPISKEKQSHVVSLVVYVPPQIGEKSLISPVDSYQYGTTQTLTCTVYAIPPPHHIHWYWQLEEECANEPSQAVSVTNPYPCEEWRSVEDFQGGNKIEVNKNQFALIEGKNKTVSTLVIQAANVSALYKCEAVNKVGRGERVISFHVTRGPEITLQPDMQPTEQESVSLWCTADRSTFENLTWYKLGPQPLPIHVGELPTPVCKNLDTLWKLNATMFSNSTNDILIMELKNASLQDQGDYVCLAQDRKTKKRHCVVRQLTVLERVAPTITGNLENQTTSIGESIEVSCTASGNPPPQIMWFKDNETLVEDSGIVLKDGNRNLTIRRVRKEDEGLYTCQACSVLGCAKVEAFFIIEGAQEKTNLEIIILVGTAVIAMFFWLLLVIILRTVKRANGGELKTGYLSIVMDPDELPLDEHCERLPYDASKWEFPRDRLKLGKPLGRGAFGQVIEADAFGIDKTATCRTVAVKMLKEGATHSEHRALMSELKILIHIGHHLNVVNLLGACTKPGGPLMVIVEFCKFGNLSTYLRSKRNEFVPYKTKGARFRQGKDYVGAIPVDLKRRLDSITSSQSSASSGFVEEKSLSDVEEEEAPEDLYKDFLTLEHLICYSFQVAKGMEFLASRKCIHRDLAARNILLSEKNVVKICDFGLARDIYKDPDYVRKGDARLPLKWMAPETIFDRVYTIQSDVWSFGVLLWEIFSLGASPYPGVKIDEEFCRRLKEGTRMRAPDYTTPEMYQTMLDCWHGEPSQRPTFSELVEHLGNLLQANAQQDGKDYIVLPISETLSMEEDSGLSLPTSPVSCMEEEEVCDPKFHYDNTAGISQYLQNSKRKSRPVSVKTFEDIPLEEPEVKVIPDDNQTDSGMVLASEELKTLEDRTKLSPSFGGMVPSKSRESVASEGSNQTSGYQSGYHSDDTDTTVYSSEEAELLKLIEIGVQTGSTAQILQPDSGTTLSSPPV

Molecule	IC50 ([1]; Homo sapiens, Caco-2, 24 h)	IC50 ([2]; Homo sapiens, HepG2, 24 h)	also measured
CCOC(=O)c1ccc(-n2c(C)cc(C)c(C#N)c2=O)cc1 [Compound 2, ethyl 4-(3-cyano-4,6-dimethyl-2-oxopyridin-1(2H)-yl)benzoate]	41.5 ± 2.5 µM	51.6 ± 2.9 µM	–
CCOC(=O)c1ccc(-n2c(C)cc(/C=C/c3ccc(OC)cc3)c(C#N)c2=O)cc1 [Compound 3a, Ethyl (E)-4-(3-cyano-4-(4-methoxystyryl)-6-methyl-2-oxopyridin-1(2H)-yl)benzoate]	84.4 ± 4 µM	78.2 ± 3.8 µM	–
CCOC(=O)c1ccc(-n2c(C)cc(/C=C/c3ccc(OCC)cc3)c(C#N)c2=O)cc1 [Compound 3b, Ethyl (E)-4-(3-cyano-4-(4-ethoxystyryl)-6-methyl-2-oxopyridin-1(2H)-yl)benzoate]	75.7 ± 3.5 µM	63.1 ± 3.4 µM	–
CCOC(=O)c1ccc(NC(=O)C2=C3C(=Nc4ccccc43)NC2=O)cc1 [Compound 6, ethyl 4-(2-oxo-1,2-dihydropyrrolo[2,3-b]indole-3-carboxamido)benzoate]	45.4 ± 2.7 µM	39.3 ± 2.5 µM	–
CCOC(=O)c1ccc(N2C(N)=C(C#N)C3(C(=O)Nc4ccccc43)C(C#N)=C2O)cc1 (stereo not shown) [Compound 7, Ethyl 4-(2′-amino-3′,5′-dicyano-6′-hydroxy-2-oxo-1′H-spiro[indoline-3,4′-pyridin]-1′-yl)benzoate]	7.83 ± 0.5 µM	8.9 ± 0.6 µM	IC50 ([3]; Enzyme inhibitory activity IC50 VEGFR-2, average of three independent tests): 0.221 ± 0.009 µM; inhibition at 10 µM ([3]; read-out: VEGFR-2 Inhibitory%): 87%; Cell cycle distribution, S phase ([4]; untreated 31.18%): 42.07%; Cell cycle distribution, G0-G1 ([4]; untreated 54.69%): 51.08%; Cell cycle distribution, G2/M ([4]; untreated […]%): 6.85%; IC50 [5]: < 0.25 µM and 0.124 µM; inhibition at 10 µM [5]: 88.4%; Early apoptosis, increase compared to the control ([6]; Caco-2, at IC50): 67.60 folds; Late apoptosis, increase compared to the control ([6]; Caco-2, at IC50): 100.11 folds; Apoptosis Late ([6]; Caco-2, at IC50 for 24 h, control 0.17): 17.02%; Apoptosis Early ([6]; Caco-2, at IC50 for 24 h, control 0.33): 22.31%; Necrosis ([6]; Caco-2, at IC50 for 24 h, control 1.42): 3.02%; Apoptosis Total ([6]; Caco-2, at IC50 for 24 h, control 1.92): 42.35%
CCOC(=O)C1=C(N)N(c2ccc(C(=O)OCC)cc2)C(O)=C(C#N)C12C(=O)Nc1ccccc12 (stereo not shown) [Compound 8, Ethyl 2′-amino-5′-cyano-1′-(4-(ethoxycarbonyl)phenyl)-6′-hydroxy-2-oxo-1′H spiro[indoline-3,4′-pyridine]-3′-carboxylate]	13.6 ± 1.2 µM	8.42 ± 0.7 µM	–
CCOC(=O)c1ccc(-n2c(N)c(C#N)c(CC#N)c(C#N)c2=O)cc1 [Compound 10, ethyl 4-(6-amino-3,5-dicyano-4-(cyanomethyl)-2-oxopyridin-1(2H)-yl)benzoate]	37.8 ± 2.3 µM	25.2 ± 1.9 µM	–
CCOC(=O)c1ccc(-n2c(-c3ccc(C)cc3)cc(-c3ccc(O)cc3)c(C#N)c2=O)cc1 [Compound 11, Ethyl 4-(3-cyano-4-(4-hydroxyphenyl)-2-oxo-6-(p-tolyl)pyridin-1(2H)-yl)benzoate]	19.2 ± 1.4 µM	14.9 ± 1.2 µM	–
COc1cccc2c1C(=O)c1c(O)c3c(c(O)c1C2=O)C[C@@](O)(C(=O)CO)C[C@@H]3O[C@H]1C[C@H](N)[C@H](O)[C@H](C)O1 [Doxorubicin, reference compound]	–	4.5 ± 0.2 µM	IC50 [5]: 0.349 ± 0.016 µM; inhibition at 10 µM [5]: 77.6%
ethyl 4-(3′,5′-dicyano-2′,6′-dihydroxy-1,3-dioxo-1,3-dihydro-1′H-spiro[indene-2,4′-pyridin]-1′-yl)benzoate [Compound 5]	–	–	IC50 ([1]; MTT, 24 h incubation, Caco-2): 9.78 ± 0.7 µM; IC50 ([2]; MTT, 24 h incubation, HepG-2): 10.6 ± 0.8 µM

Reference: paper PMC10069231 (RSC Advances, 2023)
